Source: ChEMBL document CHEMBL3886728, “Dihydrobenzoxazine and tetrahydroquinoxaline sodium channel inhibitors” (2016)

biological target: T1, Sodium channel protein type 9 subunit alpha (Homo sapiens, UniProt Q15858); assay: In Vitro Assay: HEK 293 cells stably transfected with either Nav 1.7 or with Nav 1.5 were recorded in population patch-clamp mode with the IonWorks® Quattro automated electrophysiology system in accordance with the manufacturer's specifications (Molecular Devices, LLC, Sunnyvale, Calif.). Sodium channel currents were measured in response to a train of depolarizations that induced successively greater inactivation. Cells were held at −110 mV for three seconds (Nav 1.7) or half a second (Nav 1.5) from a holding voltage of −15 mV, then put through a series of 26 pulses of 150 msec duration to −20 mV at a frequency of 5 Hz. Cells were then left unclamped for a period of 3 to 8 minutes while a single concentration of test compound was added. Cells were then reclamped and put through the same voltage protocol. Current at the end of the 26th pulse to −20 mV was subtracted from the peak current evoked by the 26th pulse to −20 mV to correct for leak current.; type: cell-based
T1 sequence (Q15858 whole entry): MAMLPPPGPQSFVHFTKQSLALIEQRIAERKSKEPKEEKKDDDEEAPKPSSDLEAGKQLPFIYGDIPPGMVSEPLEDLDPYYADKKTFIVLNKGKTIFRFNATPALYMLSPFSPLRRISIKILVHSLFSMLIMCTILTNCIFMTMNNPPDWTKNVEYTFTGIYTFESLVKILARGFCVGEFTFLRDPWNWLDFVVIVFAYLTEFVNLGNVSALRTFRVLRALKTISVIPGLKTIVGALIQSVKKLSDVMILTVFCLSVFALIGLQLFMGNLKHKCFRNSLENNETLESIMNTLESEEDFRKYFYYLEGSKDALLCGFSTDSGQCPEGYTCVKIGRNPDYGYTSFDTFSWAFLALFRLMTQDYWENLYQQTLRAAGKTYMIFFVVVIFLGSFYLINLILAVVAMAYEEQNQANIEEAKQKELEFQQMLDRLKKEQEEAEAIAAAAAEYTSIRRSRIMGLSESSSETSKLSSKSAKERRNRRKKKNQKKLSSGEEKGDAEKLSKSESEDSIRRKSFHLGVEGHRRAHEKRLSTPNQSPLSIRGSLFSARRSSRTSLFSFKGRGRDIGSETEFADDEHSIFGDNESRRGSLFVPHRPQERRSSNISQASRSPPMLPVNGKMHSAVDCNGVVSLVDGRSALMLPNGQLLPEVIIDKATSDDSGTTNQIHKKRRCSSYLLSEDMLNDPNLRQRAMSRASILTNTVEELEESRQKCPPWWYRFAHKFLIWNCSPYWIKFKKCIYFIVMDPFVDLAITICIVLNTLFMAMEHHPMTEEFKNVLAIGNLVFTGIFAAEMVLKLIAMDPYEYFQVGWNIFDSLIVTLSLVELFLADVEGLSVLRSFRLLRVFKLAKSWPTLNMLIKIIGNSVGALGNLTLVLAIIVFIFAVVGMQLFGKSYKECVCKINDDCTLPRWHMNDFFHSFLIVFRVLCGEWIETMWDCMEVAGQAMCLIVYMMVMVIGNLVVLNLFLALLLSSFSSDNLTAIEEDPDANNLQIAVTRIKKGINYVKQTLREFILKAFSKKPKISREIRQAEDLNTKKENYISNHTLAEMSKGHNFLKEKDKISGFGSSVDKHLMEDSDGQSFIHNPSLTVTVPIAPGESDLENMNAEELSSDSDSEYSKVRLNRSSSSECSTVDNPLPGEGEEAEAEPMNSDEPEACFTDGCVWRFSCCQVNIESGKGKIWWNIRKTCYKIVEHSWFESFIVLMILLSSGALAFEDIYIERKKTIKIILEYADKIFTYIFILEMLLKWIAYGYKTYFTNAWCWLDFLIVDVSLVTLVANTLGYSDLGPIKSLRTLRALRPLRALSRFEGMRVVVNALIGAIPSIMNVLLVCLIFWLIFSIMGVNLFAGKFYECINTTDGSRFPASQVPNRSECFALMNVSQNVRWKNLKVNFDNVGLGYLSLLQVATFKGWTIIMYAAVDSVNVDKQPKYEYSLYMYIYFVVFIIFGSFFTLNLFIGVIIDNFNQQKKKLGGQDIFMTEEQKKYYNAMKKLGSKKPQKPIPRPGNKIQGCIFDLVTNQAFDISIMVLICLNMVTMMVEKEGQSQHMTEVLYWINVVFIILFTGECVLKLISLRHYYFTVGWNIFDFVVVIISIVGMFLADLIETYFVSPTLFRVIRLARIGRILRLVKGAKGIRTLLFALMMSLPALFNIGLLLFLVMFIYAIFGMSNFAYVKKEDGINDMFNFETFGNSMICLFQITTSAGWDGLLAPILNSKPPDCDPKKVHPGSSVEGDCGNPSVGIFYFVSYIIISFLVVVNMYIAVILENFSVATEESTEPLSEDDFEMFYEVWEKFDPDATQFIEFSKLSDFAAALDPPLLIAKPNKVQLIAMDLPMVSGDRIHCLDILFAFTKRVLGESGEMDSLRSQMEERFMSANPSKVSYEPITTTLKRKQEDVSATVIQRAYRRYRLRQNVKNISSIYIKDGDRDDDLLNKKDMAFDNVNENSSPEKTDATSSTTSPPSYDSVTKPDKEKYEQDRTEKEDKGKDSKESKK

Compared with `CCOc1cccc(N2CCOc3cc(S(=O)(=O)Nc4nccs4)ccc32)c1`, `COc1cccc(N2CCOc3cc(S(=O)(=O)Nc4nccs4)ccc32)c1` is 5.3-fold lower in IC50: 742 nM for the first, 141 nM for the second. The second is the more potent here.

First: O=S(=O)(Nc1nccs1)c1ccc2c(c1)OCCN2c1ccccc1C(F)(F)F
Second: O=S(=O)(Nc1nccs1)c1ccc2c(c1)OCCN2c1ccc(F)cc1F
The IC50 of the first is 8.7-fold higher: 1660 nM for the first, 191 nM for the second. The second is the more potent here.

First: O=S(=O)(Nc1nccs1)c1ccc2c(c1)OCCN2c1cccc(Cl)c1Cl
Second: Cc1c(Cl)cccc1N1CCOc2cc(S(=O)(=O)Nc3nccs3)ccc21
The IC50 of the first is 2.2-fold lower: 274 nM for the first, 601 nM for the second. The first is the more potent here.

Compared with `CN1CC=C(c2cc(C(F)(F)F)ccc2N2CCOc3cc(S(=O)(=O)Nc4ccncn4)ccc32)CC1`, `CC(C)(C)OC(=O)N1CC=C(c2cc(C(F)(F)F)ccc2N2CCOc3cc(S(=O)(=O)Nc4ncns4)ccc32)CC1` is 18-fold higher in IC50: 4.5 nM for the first, 81.8 nM for the second. The first is the more potent here.

Compared with `O=C1CCCc2ccc(N3CCOc4cc(S(=O)(=O)Nc5nccs5)ccc43)cc21`, `Cc1ccc(N2CCOc3cc(S(=O)(=O)Nc4nccs4)ccc32)cc1Cl` is 1.5-fold lower in IC50: 1100 nM for the first, 733 nM for the second.

First: COc1ccc(N2CCOc3cc(S(=O)(=O)Nc4nccs4)ccc32)c(C#N)c1
Second: N#Cc1ccc(F)c(N2CCOc3cc(S(=O)(=O)Nc4nccs4)ccc32)c1
The IC50 of the first is 3.7-fold higher: 2690 nM for the first, 727 nM for the second.

Compared with `Cc1cc(N2CCOc3cc(S(=O)(=O)Nc4nccs4)ccc32)cc(C)c1N(C)C`, `Cc1ccc(N2CCOc3cc(S(=O)(=O)Nc4nccs4)ccc32)cc1F` is 9.1-fold higher in IC50: 808 nM for the first, 7370 nM for the second.

Going from `O=S(=O)(Nc1nccs1)c1ccc2c(c1)OCCN2c1ncc(Cl)cc1Cl` to `O=S(=O)(Nc1nccs1)c1ccc2c(c1)OCCN2c1cc(F)ccc1F`, the IC50 falls from 397 nM to 114 nM (3.5-fold). The second is the more potent here.

`O=S(=O)(Nc1nccs1)c1ccc2c(c1)OCCN2c1cccc2scnc12` and `O=S(=O)(Nc1nccs1)c1ccc2c(c1)OCCN2c1ccc(-n2ccnc2)cc1` are within 1.5-fold of each other in IC50: 3760 nM for the first, 2690 nM for the second.

biological target: T1, Sodium channel protein type 9 subunit alpha; assay: In Vitro PX Assay: HEK 293 cells stably transfected with human Nav1.7 were recorded in whole cell voltage clamp mode with the PatchXpress automated electrophysiology system (Molecular Devices, LLC, Sunnyvale, Calif.). Compound effects were measured on a partially inactivated state of the sodium channel. Cells were clamped to a holding potential yielding 20 to 50% inactivation. To elicit sodium current, channels were activated by pulsing to −10 mV for 20 msec. This voltage protocol was repeated at a rate of 0.1 Hz throughout the experiment. A single concentration of test compound was applied to cells for a duration of 3 minutes.; type: cell-based

`CCOc1cccc(N2CCOc3cc(S(=O)(=O)Nc4nccs4)ccc32)c1` and `COc1cccc(N2CCOc3cc(S(=O)(=O)Nc4nccs4)ccc32)c1` are within 1.5-fold of each other in IC50: 2850 nM for the first, 2070 nM for the second.

First: O=S(=O)(Nc1nccs1)c1ccc2c(c1)OCCN2c1ccccc1C(F)(F)F
Second: O=S(=O)(Nc1nccs1)c1ccc2c(c1)OCCN2c1ccc(F)cc1F
The IC50 of the first is 4.4-fold higher: 8020 nM for the first, 1820 nM for the second.

Compared with `O=S(=O)(Nc1nccs1)c1ccc2c(c1)OCCN2c1cccc(Cl)c1Cl`, `Cc1c(Cl)cccc1N1CCOc2cc(S(=O)(=O)Nc3nccs3)ccc21` is 2.3-fold lower in IC50: 961 nM for the first, 416 nM for the second. The second is the more potent here.

First: COc1cc(C#N)ccc1N1CCOc2cc(S(=O)(=O)Nc3ccncn3)ccc21
Second: COc1ccc(N2CCOc3cc(S(=O)(=O)Nc4nccs4)ccc32)c(C#N)c1
The IC50 of the first is 15-fold lower: 910 nM for the first, 13800 nM for the second.

`CN1CC=C(c2cc(C(F)(F)F)ccc2N2CCOc3cc(S(=O)(=O)Nc4ccncn4)ccc32)CC1` and `CC(C)(C)OC(=O)N1CC=C(c2cc(C(F)(F)F)ccc2N2CCOc3cc(S(=O)(=O)Nc4ncns4)ccc32)CC1` are within 1.5-fold of each other in IC50: 364 nM for the first, 306 nM for the second.

Going from `O=C1CCCc2ccc(N3CCOc4cc(S(=O)(=O)Nc5nccs5)ccc43)cc21` to `Cc1ccc(N2CCOc3cc(S(=O)(=O)Nc4nccs4)ccc32)cc1Cl`, the IC50 falls from 7100 nM to 1550 nM (4.6-fold).

Going from `Cc1cc(N2CCOc3cc(S(=O)(=O)Nc4nccs4)ccc32)cc(C)c1N(C)C` to `O=S(=O)(Nc1nccs1)c1ccc2c(c1)OCCN2c1cc(F)ccc1F`, the IC50 falls from 2370 nM to 1110 nM (2.1-fold).

`O=S(=O)(Nc1nccs1)c1ccc2c(c1)OCCN2c1ncc(Cl)cc1Cl` and `N#Cc1ccc(F)c(N2CCOc3cc(S(=O)(=O)Nc4nccs4)ccc32)c1` are within 1.5-fold of each other in IC50: 4500 nM for the first, 3190 nM for the second.

Going from `O=S(=O)(Nc1nccs1)c1ccc2c(c1)OCCN2c1cccc2scnc12` to `O=S(=O)(Nc1nccs1)c1ccc2c(c1)OCCN2c1ccc(-n2ccnc2)cc1`, the IC50 rises from 5760 nM to 13700 nM (2.4-fold). The first is the more potent here.
